≈ marks a conversion by molar mass, not a printed value.
Assays:
[1] = system: KB; experiment: Cytotoxicity against human epidermoid carcinoma of the mouth (KB) cell line.; format: functional; settings: read-out: ED50 (the source's name)
[2] = system: SK-MEL-2; experiment: Cytotoxicity against cultured human melanoma (MEL-2) cell line.; format: functional; settings: read-out: ED50 (the source's name)

Compound | EC50 [1] [µg/mL] | EC50 [2] [µg/mL]
C=C(C)[C@@H]1CC[C@]2(C)CC[C@]3(C)[C@H](CC[C@@H]4[C@@]5(C)CC[C@H](O)C(C)(C)[C@@H]5CC[C@]43C)[C@@H]12 [LUPEOL] | > 20 | 17.6 (≈ 41.2 µM)
C=C(C)[C@@H]1CC[C@]2(/C=N/O)CC[C@]3(C)[C@H](CC[C@@H]4[C@@]5(C)CC/C(=N\O)C(C)(C)[C@@H]5CC[C@]43C)[C@@H]12 [BETULIN-3,28-DIOXIME] | 3.3 (≈ 7.04 µM) | 2.2 (≈ 4.69 µM)
C=C(C)[C@@H]1CC[C@]2(/C=N/OC)CC[C@]3(C)[C@H](CC[C@@H]4[C@@]5(C)CC/C(=N\OC)C(C)(C)[C@@H]5CC[C@]43C)[C@@H]12 | 20 (≈ 40.3 µM) | > 20
C=C(C)[C@@H]1CC[C@]2(C(=O)O)CC[C@]3(C)[C@H](CC[C@@H]4[C@@]5(C)CCC(=O)C(C)(C)[C@@H]5CC[C@]43C)[C@@H]12 [BETUNOLIC ACID] | 2.5 (≈ 5.5 µM) | 0.9 (≈ 1.98 µM)
C=C(C)[C@@H]1CC[C@]2(C(=O)O)CC[C@]3(C)[C@H](CC[C@@H]4[C@@]5(C)CC/C(=N\OC)C(C)(C)[C@@H]5CC[C@]43C)[C@@H]12 | 4.3 (≈ 8.89 µM) | 8.3 (≈ 17.2 µM)
CO/N=C1\CC[C@]2(C)[C@H]3CC[C@@H]4[C@H]5[C@H](C(C)C)CC[C@]5(C(=O)O)CC[C@@]4(C)[C@]3(C)CC[C@H]2C1(C)C | > 20 | > 20
C=C(C)[C@@H]1CC[C@]2(CO)CC[C@]3(C)[C@H](CC[C@@H]4[C@@]5(C)CC[C@H](O)C(C)(C)[C@@H]5CC[C@]43C)[C@@H]12 [BETULIN] | > 20 | > 20
C=C(C)[C@@H]1CC[C@]2(C(=O)O)CC[C@]3(C)[C@H](CC[C@@H]4[C@@]5(C)CC[C@H](O)C(C)(C)[C@@H]5CC[C@]43C)[C@@H]12 [BETULINIC ACID] | > 20 | 1.2 (≈ 2.63 µM)
CC(C)[C@@H]1CC[C@]2(C(=O)O)CC[C@]3(C)[C@H](CC[C@@H]4[C@@]5(C)CC/C(=N\O)C(C)(C)[C@@H]5CC[C@]43C)[C@@H]12 | > 20 | 2.2 (≈ 4.66 µM)
C=C(C)[C@@H]1CC[C@]2(C(=O)OC)CC[C@]3(C)[C@H](CC[C@@H]4[C@@]5(C)CC[C@H](O)C(C)(C)[C@@H]5CC[C@]43C)[C@@H]12 [METHYL BETULINATE] | 11.8 (≈ 25.1 µM) | 8.3 (≈ 17.6 µM)
C=C(C)[C@@H]1CC[C@]2(C=O)CC[C@]3(C)[C@H](CC[C@@H]4[C@@]5(C)CCC(=O)C(C)(C)[C@@H]5CC[C@]43C)[C@@H]12 [BETULONAL] | 12.9 (≈ 29.4 µM) | 7.4 (≈ 16.9 µM)
C=C(C)[C@@H]1CC[C@]2(C)CC[C@]3(C)[C@H](CC[C@@H]4[C@@]5(C)CC[C@H](OC(=O)c6ccccc6)C(C)(C)[C@@H]5CC[C@]43C)[C@@H]12 | > 20 | > 20
CC(C)[C@@H]1CC[C@]2(C(=O)O)CC[C@]3(C)[C@H](CC[C@@H]4[C@@]5(C)CC[C@H](O)C(C)(C)[C@@H]5CC[C@]43C)[C@@H]12 [DIHYDROBETULINIC ACID] | > 20 | 5.8 (≈ 12.6 µM)
CC(C)[C@@H]1CC[C@]2(C(=O)O)CC[C@]3(C)[C@H](CC[C@@H]4[C@@]5(C)CCC(=O)C(C)(C)[C@@H]5CC[C@]43C)[C@@H]12 [DIHYDROBETULONIC ACID] | > 20 | 0.7 (≈ 1.53 µM)
C=C(C)[C@@H]1CC[C@]2(C(=O)O)CC[C@]3(C)[C@H](CC[C@@H]4[C@@]5(C)CC[C@H](N)C(C)(C)[C@@H]5CC[C@]43C)[C@@H]12 | – | 1.3 (≈ 2.85 µM)

Source: ChEMBL document CHEMBL1130868, “Synthesis of betulinic acid derivatives with activity against human melanoma” (1998)
